The values below are quoted from earlier work in patent US5180744A, “Aralkyl-N-terminal amino hydroxy” (G. D. Searle & Co., priority 1991, dated 1993).

The series has as its system hog renin. The note with it: after the injection of hog renin into nephrectomized rats.

Square brackets hold non-standard residues; d marks the D form. Peptide text beside a SMILES is read from it. * marks the point of attachment. Sta = CC(C)C[C@H](N)[C@@H](O)CC(=O)O; Isovaleryl = CC(C)CC(=O)*

As for `CC(C)CC(=O)N[C@H](C(=O)N[C@H](C(=O)N[C@@H](CC(C)C)[C@@H](O)CC(=O)N[C@@H](C)C(=O)N[C@@H](CC(C)C)[C@@H](O)CC(=O)O)C(C)C)C(C)C` [pepstatin] (Isovaleryl-VV[Sta]A[Sta]-OH), the “blood pressure in vivo” value is recorded as “reduce blood pressure in vivo”.
